Here are results for 14 molecules from patent publication US10584115B2, “Substituted pyridine and pyrazine BMI-1 inhibitors” (PTC Therapeutics, Inc., priority 2013, dated 2020).

For one test, the system named is Bmi-1 protein. In words: Sandwich ELISA Assay (Bmi-1 protein level in HT-1080 cells after compound treatment). Format: cell-based. To be noted: Table 1, Bmi-1 sandwich ELISA, read-out: ELISA EC50 value for Bmi-1 protein. As for the experimental part:
Cell Seeding and Compound Treatment (Day 1):
HT-1080 cells were seeded at 8000 cells/well (50 μL) in 96-well tissue culture plates. After the cells became adherent (3-4 hours), 2× diluted stocks of test compounds in 50 μL DMEM containing 1% DMSO (final DMSO concentration was 0.5%) were added and the plates were incubated at 37° C. under 5% CO2 for 40-48 hours.
ELISA Plate First Antibody Preparation (Day 2):
The First Antibody (Millipore Mouse, monoclonal to mouse Bmi-1, clone F6, catalog #05-637) diluted to […] in PBS was added (100 μL) to each well of a Nunc MaxiSorp 96-well ELISA plate. The plate was covered with a plate seal and allowed to stand overnight.
Cell Lysate Preparation (Day 3):
Fresh Lysis buffer (1×) was prepared on the day of the assay as follows: 1 mM EDTA, 150 mM NaCl, 0.5% Triton-X 100, 10 mM NaF, 20 mM B-Glycerophosphate, 1 mM DTT (in PBS, pH 7.2-7.4) and HALT protease inhibitor cocktail (lx) (Pierce #78410).
A standard curve was prepared at the following Bmi-1 concentrations: 8000, 4000, 2000, 1000, 500, 250, 125 and 0 pg/mL. The Bmi-1 Recombinant Protein Standard (Novus Biologicals PCGF4 Recombinant Protein (P01), catalog # H00000648-P01) used to prepare the standard curve was stored at −80° C. On first thaw, the Recombinant Protein Standard was diluted to 10 μg/L in Blocking Buffer (1% BSA in PBS; BSA: Fisher Scientific Catalog #1600-100). Aliquots were taken and refrozen at −80° C. The aliquots may be kept at 4° C. and reused after first thaw, but only within 1-2 weeks. The Recombinant Protein Standard contains a GST-fusion tag that appears at approximately 70 Kda on Western Blot.
The prepared ELISA plate was washed 3× with Wash Buffer (0.05% Tween-20 in PBS). The final wash was removed from the plate and the plate was blotted dry. Blocking Buffer (300 μL) (1% BSA in PBS) was added to each well. The plate was covered with a plate seal and incubated at room temperature for 1 hour. The blocked plate was washed 3× with Wash Buffer, then the final wash was removed and the plate was blotted dry. The previously prepared samples and standards were added ([…]) and the plate was covered with a plate seal and incubated at 4° C. overnight.
The prepared ELISA plate was removed from incubation and allowed to stand at room temperature for 30 minutes, then washed and blotted dry. The Second Antibody (Cell Signaling Rabbit anti-Bmi-1, Cat #2830) diluted to 1:600 in Blocking Buffer was added (100 μL) to each well, except as needed for background control wells. The plate was covered with a plate seal and incubated for 1.5 hrs at room temperature.
The ELISA plate was washed and blotted dry as previously described. The Third Antibody (Cell Signaling HRP conjugated anti-rabbit IgG (CellSignaling, Cat #:7074) diluted to 1:300 in Blocking Buffer was added (100 μL) to each well, except as needed for background control wells. The plate was incubated for 1 hr at room temperature.
The plate was washed and blotted dry, then a previously prepared TMB substrate (TMB substrate kit, Pierce catalog #34021) (prepared by mixing kit reagents 1:1) (100 μL) was added per well. The plate was incubated for 20-30 minutes at room temperature in the dark, then Stop Solution (2 M sulfuric acid in water) (50 μL) was added per well. The plates were read at OD450 (experimental) and OD570 (reference).
A word on the EC50: it is the concentration needed to bring the measured effect to its halfway point. Turning to `FC(F)(F)COc1ccc(Nc2cncc(-c3c(C(F)(F)F)nc4ccccn34)n2)cc1` [compound 321, N-[4-(2,2,2-trifluoroethoxy)phenyl]-6-[2-(trifluoromethyl)imidazo[1,2-a]pyridin-3-yl]pyrazin-2-amine], the EC50 lay within 0.01 to 0.1 µM.

As to `FC(F)Oc1ccc(Nc2cncc(-c3c(C(F)(F)F)nc4sccn34)n2)cc1` [compound 121, N-[4-(difluoromethoxy)phenyl]-6-[6-(trifluoromethyl)imidazo[2,1-b][1,3]thiazol-5-yl]pyrazin-2-amine], the EC50 lay in the range of 0.001 to 0.01 µM.

Take `COc1ccc(Nc2cncc(-n3c(C)nc4ccccc43)n2)cc1Cl` [compound 28, N-(3-chloro-4-methoxyphenyl)-6-(2-methyl-1H-benzimidazol-1-yl)pyrazin-2-amine]: the EC50 fell in the range of 0.001 to 0.01 µM.

As to `Cc1nc2ccc(F)cc2n1-c1cc(C#N)cc(Nc2ccc(Cl)cc2)n1` [compound 612, 2-[(4-chlorophenyl)amino]-6-(6-fluoro-2-methyl-1H-benzimidazol-1-yl)pyridine-4-carbonitrile], the EC50 fell in the range of 0.01 to 0.1 µM.

Regarding `FC(F)(F)c1ccc(Nc2cccc(-c3c(C(F)(F)F)nc4ccccn34)n2)cn1` [Cpd 71, 6-[2-(trifluoromethyl)imidazo[1,2-a]pyridin-3-yl]-N-[6-(trifluoromethyl)pyridin-3-yl]pyridin-2-amine], the EC50 is 0.001 to 0.01 µM.

For the molecule `Fc1ccc(Nc2cncc(-c3c(C(F)(F)F)nc4ccccn34)n2)cc1` [Cpd 9, N-(4-fluorophenyl)-6-[2-(trifluoromethyl)imidazo[1,2-a]pyridin-3-yl]pyrazin-2-amine], the EC50 was in the range of 0.1 to 3 µM.

`Cc1nc2ccccc2n1-c1cncc(Nc2ccc(OC(F)F)c(F)c2)n1` [compound 324, N-[4-(difluoromethoxy)-3-fluorophenyl]-6-(2-methyl-1H-benzimidazol-1-yl)pyrazin-2-amine]: the EC50 lay in the range of 0.01 to 0.1 µM.

For the molecule `N#Cc1cc(Nc2ccc(C(F)(F)F)c(F)c2)nc(-c2c(CO)nc3ccc(F)cn23)c1` [compound 395, 2-[6-fluoro-2-(hydroxymethyl)imidazo[1,2-a]pyridin-3-yl]-6-{[3-fluoro-4-(trifluoromethyl)phenyl]amino}pyridine-4-carbonitrile], the EC50 fell in the range of 0.1 to 3 µM.

Take `Cc1nc2ccc(F)cc2n1-c1cccc(Nc2ccc(OC(F)(F)F)cc2)n1` [Cpd 585, 6-(6-fluoro-2-methyl-1H-benzimidazol-1-yl)-N-[4-(trifluoromethoxy)phenyl]pyridin-2-amine]: the EC50 fell in the range of 0.1 to 3 µM.

As to `Cc1nc2ncccc2n1-c1cncc(Nc2ccc(OC(F)(F)F)cc2)n1` [compound 95, 6-(2-methyl-1H-imidazo[4,5-b]pyridin-1-yl)-N-[4-(trifluoromethoxy)phenyl]pyrazin-2-amine], the EC50 was in the range of 0.01 to 0.1 µM.

Regarding `[O-][n+]1cc(Nc2ccc(C(F)(F)F)cc2)nc(-c2c(C(F)(F)F)nc3ccccn23)c1` [compound 534, 6-[2-(trifluoromethyl)imidazo[1,2-a]pyridin-3-yl]-N-[4-(trifluoromethyl)phenyl]pyrazin-2-amine 4-oxide], the EC50 lay within 0.01 to 0.1 µM.

Regarding `Oc1ccc2nc(C(F)(F)F)c(-c3cccc(Nc4ccc(OC(F)(F)F)cc4)n3)n2c1` [compound 110, 3-(6-{[4-(trifluoromethoxy)phenyl]amino}pyridin-2-yl)-2-(trifluoromethyl)imidazo[1,2-a]pyridin-6-ol], the EC50 fell in the range of 0.1 to 3 µM.

As to `Cc1nc2ccc(Cl)cc2n1-c1cncc(Nc2ccc(OC(F)(F)F)cc2)n1` [compound 220, 6-(6-chloro-2-methyl-1H-benzimidazol-1-yl)-N-[4-(trifluoromethoxy)phenyl]pyrazin-2-amine], the EC50 lay in the range of 0.01 to 0.1 µM.

Staying with this test, now noted: read-out: ELISA EC50 value for Bmi-1 protein, Table 1, Bmi-1 sandwich ELISA.
As for `Cc1nc(Cl)c(Cl)n1-c1cncc(Nc2ccc(C(F)(F)F)cc2)n1` [Cpd 297, 6-(4,5-dichloro-2-methyl-1H-imidazol-1-yl)-N-[4-(trifluoromethyl)phenyl]pyrazin-2-amine], the EC50 lay within 0.1 to 3 µM.
